Laboratory results published in patent publication US4244970A, “Method of treating inflammation” (Forsyth Dental Infirmary for Children, priority 1979, dated 1981).

Biological target: prostaglandin synthetase (Ovis aries, UniProt P05979)
Assay: Prostaglandin synthetase inhibition, sheep vesicular gland microsomal preparation (oxygen electrode)
Type: biochemical
Conditions: sheep vesicular gland microsomes; 0.1 M Tris HCl pH 8.0; inhibitor added 1 minute before arachidonate; read-out: [I]50, concentration of an inhibitor that reduced prostaglandin synthesis by 50%
Procedure: Prostaglandin synthetase activity was determined by following oxygen tension in a closed reaction chamber using a Clark-type oxygen electrode. For each assay 2.9 ml of 0.1 M Tris HCl buffer, pH 8.0, 10 ul of 0.2 M phenol, and 50 ul of enzyme suspension (2.5 mg microsomal preparation) were added to the reaction chamber. Ten ul of inhibitor in ethanol was added 1 minute prior to initiation of the reaction. The reaction was initiated by addition of 10 ul of 3.6 mM arachidonate solution. The concentration of an inhibitor that reduced prostaglandin synthesis by 50% ([I]50) was determined from plots of activity vs log concentration of inhibitor.

Sequence of prostaglandin synthetase (P05979 25-600): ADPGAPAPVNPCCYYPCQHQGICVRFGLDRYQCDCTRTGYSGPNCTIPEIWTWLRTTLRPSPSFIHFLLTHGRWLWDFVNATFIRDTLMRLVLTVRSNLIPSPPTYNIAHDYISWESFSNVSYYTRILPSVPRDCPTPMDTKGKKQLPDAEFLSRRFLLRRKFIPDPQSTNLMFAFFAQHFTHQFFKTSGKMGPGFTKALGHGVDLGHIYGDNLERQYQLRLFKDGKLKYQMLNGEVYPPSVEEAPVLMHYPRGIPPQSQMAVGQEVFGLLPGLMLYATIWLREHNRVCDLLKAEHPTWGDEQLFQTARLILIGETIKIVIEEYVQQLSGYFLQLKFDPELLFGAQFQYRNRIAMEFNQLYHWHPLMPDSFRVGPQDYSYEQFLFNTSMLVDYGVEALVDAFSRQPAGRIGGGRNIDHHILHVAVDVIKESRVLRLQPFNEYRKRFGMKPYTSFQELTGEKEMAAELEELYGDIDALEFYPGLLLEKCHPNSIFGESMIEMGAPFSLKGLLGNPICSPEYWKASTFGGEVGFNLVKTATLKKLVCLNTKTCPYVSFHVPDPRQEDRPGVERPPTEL

IC50: 3.8 µM
SMILES: O=C(c1ccccc1)c1ccccc1O [2-hydroxybenzophenone]
